Measurements as given in patent publication US20240208988A1, “Alstonine Derivatives and Salts Thereof” (priority 2021, published 2024).
Entries after “also recorded” stand apart in the source; their conditions may differ. Counter-ions that a name gives are not always drawn.

Key:
Zebrafish (Danio rerio) [1] = experiment: Open tank test in zebrafish exposed to MK-801; format: in vivo; conditions: for total distance in the open tank test: FIG. 7; for absolute turn angle in the open tank test: FIG. 8; for number of clockwise rotations in the open tank test: FIG. 9; for time spent immobile in the open tank test: for pretreatments: effect on the MK-801-induced increase, FIG. 10; for Open Tank Test: Absolute turn angle / Open Tank Test: Time immobile / Open Tank Test: Clockwise rotations / Open Tank Test: Total distance: immediately after social interaction test, 10 min; for Open Tank Test: Clockwise rotations / Open Tank Test: Total distance: bracket = kind of effect and concentration (mg/L)
Method: (§1) Here, the ability of alstonine salts to reverse schizophrenia-like symptoms produced by MK-801 in zebrafish was evaluated. The atypical antipsychotic olanzapine was used as a comparison.
(§2) Experiments were performed using male and female (50:50 ratio) short-fin wild-type zebrafish (4-month-old, 300-500 mg). Adult animals were obtained from a local commercial supplier (Delphis, RS, Brazil). The animals were maintained at Instituto de Ciências Básicas de Saúde in a light/dark cycle of 14/10 h with lights on at 7:00 a.m. for at least two weeks before tests. Fish were kept in 40-L (30×46×33 cm) unenriched glass tanks with non-chlorinated water at a maximum density of five animals per liter. Tank water satisfied the controlled conditions required for zebrafish (26±2° C.; pH 7.0±0.3; dissolved oxygen at 7.0±0.4 mg/L; total ammonia at <0.01 mg/L; total hardness at 5.8 mg/L; alkalinity at 22 mg/L CaCO3; conductivity of 1,500-1,600 μS/cm) and was constantly filtered by mechanical, biological, and chemical filtration systems. Food was provided twice a day as commercial flake food (Poytara®, SP, Brazil) plus brine shrimp (Artemia salina). The sex of the animals was confirmed after euthanasia by dissecting and analyzing the gonads. For all experiments, no sex effects were observed, so data was pooled together. Animals were euthanized by hypothermic shock according to the AVMA Guidelines for the Euthanasia of Animals (Leary and Johnson, 2020).
(§3) Olanzapine and MK-801 (dizocilpine) were purchased from Sigma-Aldrich (St. Louis, MO, USA). Alstonine hydrochloride and alstonine hydrobromide were prepared as described herein. MK-801 and either olanzapine or alstonine salt were dissolved in distilled water; alstonine salt stock solutions were sonicated in an ultrasonic bath. MK-801 solutions were freshly prepared, while alstonine salt stock solutions were kept refrigerated for up to five days. Exposure solutions were renovated halfway through the experiment, with a maximum of four fish exposed to the same solution.
(§4) Different sets of animals were used for each experiment, totaling 240 zebrafish in the study (plus 80 zebrafish serving as stimulus animals). Animals were individually exposed to water, olanzapine, or alstonine salt solutions at 2.5, 5, or 10 mg/L in 500-mL beakers containing 200-mL solution for 20 min. These concentrations were extrapolated from mice studies. Fish were then transferred to another beaker containing either water or MK-801 at 5 μM and remained there for another 20 minutes.
The protocol for the open tank test followed the method described by Benvenutti et al. (2021) Journal of Neuroscience Research 00: 1-16. Immediately after the social interaction test, animals were placed in the center of the open tank arena and recorded for 10 min. The apparatus consisted of a white circular arena (24 cm in diameter and 8 cm in height, 2 cm water level). The apparatus format and the acquisition of videos from the top view allows the evaluation of locomotor parameters related to stereotypic behavior (circular movements and absolute turn angle). The water was changed between every animal. The following outcomes were automatically scored using ANY-Maze software (Stoelting Co., Wood Dale, IL, USA): total distance traveled, absolute turn angle, number of clockwise rotations, and immobility time.
GraphPad Prism 8 (version 8.4.3) for macOS was used to run the statistical analyses and plot the results. No animals were excluded, except for two data points in the open tank test due to a failure in video acquisition. Data were analyzed by two-way ANOVA, with alstonine salt or olanzapine pretreatment (Drug_1) and MK-801 treatment (Drug_2) as the main factors. Bonferroni post hoc test was applied as appropriate. The significant level was set at p<0.05. Data were expressed as mean standard deviation.

Zebrafish (Danio rerio) [2] = experiment: Social interaction test in zebrafish exposed to MK-801; format: in vivo; conditions: for Social Interaction Test: Time immobile: 20 min drug pre-exposure, then 20 min MK-801 5 μM or water; for total distance traveled in the social interaction test / time spent in the interaction zone (social interaction), effect of the substance itself: main effect; for total distance traveled in the social interaction test: FIG. 3; for time spent in the interaction zone (social interaction), effect of the substance itself: two-way ANOVA, Bonferroni post hoc; for number of crossings in the social interaction test: main or interaction effect with MK-801, FIG. 4; for pre-exposure concentration at which MK-801 increased the number of crossings (Bonferroni post hoc): social interaction test, FIG. 4
Method: as §1, §2, §3, §4
The protocol for the social interaction test in zebrafish followed the method described by Benvenutti et al. (2021) Journal of Neuroscience Research 00: 1-16. After exposure, animals were placed for 7 min in a tank (30×10×15 cm) flanked by two identical tanks (15×10×13 cm) either empty (neutral stimulus) or containing 10 unknown zebrafish (social stimulus). All three tanks were filled with water in standard conditions at a level of 10 cm. The position of the social stimulus (right or left) was counterbalanced throughout the tests. The water in the test tanks was changed between every animal. To assess social behavior, the test apparatus was virtually divided into three vertical zones (interaction, middle, and neutral). Animals were habituated to the apparatus for 2 min and then analyzed for the last 5 min. Videos were recorded from the front view and time spent in the interaction zone was quantified as a proxy for social interaction. Additionally, total distance traveled, number of crossings between the vertical zones of the tank and immobility time were quantified as secondary locomotor parameters. All outcomes were automatically scored using ANY-Maze software (Stoelting Co., Wood Dale, IL, USA).
GraphPad Prism 8 (version 8.4.3) for macOS was used to run the statistical analyses and plot the results. No animals were excluded, except for two data points in the open tank test due to a failure in video acquisition. […]

rodents = conditions: acute administration; literature data; cited from earlier work
dopamine (DA) uptake = conditions: mouse striatal synaptosomes (Linck et al. 2015); cited from earlier work
mice = conditions: cited from earlier work
[3] = tested on: D1, D2, and 5-HT2A receptors; conditions: cortex membranes; preliminary binding studies (Costa-Campos et al., 1998); cited from earlier work

Structure (SMILES) | total distance in the open tank test (Zebrafish (Danio rerio) [1]) | absolute turn angle in the open tank test (Zebrafish (Danio rerio) [1]) | number of clockwise rotations in the open tank test (Zebrafish (Danio rerio) [1]) | time spent immobile in the open tank test (Zebrafish (Danio rerio) [1]) | Open Tank Test: Absolute turn angle (Zebrafish (Danio rerio) [1]) | Open Tank Test: Time immobile (Zebrafish (Danio rerio) [1]) | Open Tank Test: Clockwise rotations (Zebrafish (Danio rerio) [1]) | Open Tank Test: Total distance (Zebrafish (Danio rerio) [1]) | Social Interaction Test: Time immobile (Zebrafish (Danio rerio) [2]) | total distance traveled in the social interaction test (Zebrafish (Danio rerio) [2]) | number of crossings in the social interaction test (Zebrafish (Danio rerio) [2]) | pre-exposure concentration at which MK-801 increased the number of crossings (Bonferroni post hoc) (Zebrafish (Danio rerio) [2]) [mg/L] | also measured
C[C@]12N[C@H](Cc3ccccc31)c1ccccc12 [MK-801, dizocilpine, reference compound] | decreased the total distance relative to controls | decreased the absolute turn angle relative to controls | decreased the number of clockwise rotations relative to controls | increased the time spent immobile | ↓ | ↑ | ↓ | ↓ | = | increased the total distance traveled relative to controls | had no effect on the number of crossings |  | Social Interaction Test: Crossings (Zebrafish (Danio rerio) [2]; Ctrl vs. MK within pretreatment level, bracket = concentration (mg/L)): =; time spent immobile in the social interaction test (Zebrafish (Danio rerio) [2]; FIG. 5): tended to decrease the time spent immobile; time spent in the interaction zone (social interaction), effect of the substance itself (Zebrafish (Danio rerio) [2]; FIG. 2): decreased social preference
CCN1CCCC1CNC(=O)c1cc(S(N)(=O)=O)ccc1OC (stereo not shown) [Sulpiride] |  |  |  |  |  |  |  |  |  |  |  |  | prevention of social interaction deficits caused by MK-801 (rodents): acutely prevents the deficits caused by MK-801
COC(=O)C1=CO[C@@H](C)[C@H]2C[n+]3ccc4c([nH]c5ccccc54)c3C[C@H]12.[Br-] [alstonine hydrobromide] | did not have an effect | no main effects for Drug_1 or interaction effects were observed | did not have a main effect or an interaction effect | did not have an effect | N.E.^1 | N.E.^1 | N.E.^1 | N.E.^1 |  | had no such effect | significant interaction | 10 | time spent immobile in the social interaction test (Zebrafish (Danio rerio) [2]; FIG. 5, hydrobromide): significant interaction; time spent immobile in the social interaction test (Zebrafish (Danio rerio) [2]; FIG. 5, listed as alstonine bromide, hydrobromide): reduced the effects of MK-801 at the highest concentrations tested; time spent in the interaction zone (social interaction), effect of the substance itself (Zebrafish (Danio rerio) [2]; FIG. 2, listed as alstonine bromide, hydrobromide): none of the concentrations decreased social isolation; also recorded: did not; prevention of the MK-801-induced decrease of social interaction time (Zebrafish (Danio rerio) [2]; pretreatment 20 min before MK-801 5 μM, FIG. 2): did not prevent the effects of MK-801
COC(=O)C1=CO[C@@H](C)[C@@H]2Cn3ccc4c5ccccc5nc-4c3C[C@H]12 [alstonine hydrochloride] | did not have an effect | no main effects for Drug_1 or interaction effects were observed | did not have a main effect or an interaction effect | did not have an effect | N.E.^1 | N.E.^1 | N.E.^1 | N.E.^1 | N.E.^1 | had no such effect | significant interaction | 5 | time spent in the interaction zone (social interaction), effect of the substance itself (Zebrafish (Danio rerio) [2]; FIG. 2, hydrochloride): animals exposed to 5 and 10 mg/L alstonine hydrochloride spent less time in the interaction zone as compared to controls; also recorded: decreased the interaction time
COC(=O)C1=CO[C@@H](C)[C@@H]2Cn3ccc4c5ccccc5nc-4c3C[C@H]12 [alstonine] |  |  |  |  |  |  |  |  |  |  |  |  | effect on DA uptake (dopamine (DA) uptake): increasing DA uptake; antipsychotic profile in mice models (mice; 0.5-1.0 mg/kg ip): antipsychotic properties; time to significant effects after intraperitoneal administration (mice; mice, ip): ≤ 30 min; effect on [3H]SCH23390 or [3H]Spiperone binding [3]: does not affect
Cc1cc2c(s1)Nc1ccccc1N=C2N1CCN(C)CC1 [olanzapine, reference compound] |  |  |  |  | N.E.^1 |  |  |  | N.E.^1 |  |  |  | 
